Assay results taken from US8436178B2, “Imidazoquinolines with immuno-modulating properties” (AstraZeneca AB, priority 2007, dated 2013).

Columns and labels:
Male Brown Norway rats = assay: Antigen-induced pulmonary inflammation in a rat asthma model (OVA challenge, BALF); type: in vivo; conditions: BALF 48 h after challenge, Mean ± SE (n = 8)
Excerpt: Rats were sensitised and challenged to produce allergic airway inflammation in a similar manner to that described by Underwood et al (British Journal of Pharmacology 2002; 137: 263-275, 2002). Male Brown Norway rats were sensitized subcutaneously with ovalbumin (OVA) and aluminum hydroxide on day 0, and challenged with aerosolized OVA solution on day14.

human TLR7 = molecular target: T1, human TLR7 (Homo sapiens, UniProt Q9NYK1); assay: Human TLR7 assay (SEAP reporter in HEK293 cells); type: cell-based; conditions: SEAP induction in HEK293 cells expressing human TLR7, overnight incubation at 37° C., 0.1% DMSO
T1 construct: expressed in transfected cells; host or cells: HEK293 cell line stably expressing the pNiFty2-SEAP reporter plasmid; TLR7 in pUNO vector, blasticidin selection
T1 sequence (Q9NYK1 27-1049): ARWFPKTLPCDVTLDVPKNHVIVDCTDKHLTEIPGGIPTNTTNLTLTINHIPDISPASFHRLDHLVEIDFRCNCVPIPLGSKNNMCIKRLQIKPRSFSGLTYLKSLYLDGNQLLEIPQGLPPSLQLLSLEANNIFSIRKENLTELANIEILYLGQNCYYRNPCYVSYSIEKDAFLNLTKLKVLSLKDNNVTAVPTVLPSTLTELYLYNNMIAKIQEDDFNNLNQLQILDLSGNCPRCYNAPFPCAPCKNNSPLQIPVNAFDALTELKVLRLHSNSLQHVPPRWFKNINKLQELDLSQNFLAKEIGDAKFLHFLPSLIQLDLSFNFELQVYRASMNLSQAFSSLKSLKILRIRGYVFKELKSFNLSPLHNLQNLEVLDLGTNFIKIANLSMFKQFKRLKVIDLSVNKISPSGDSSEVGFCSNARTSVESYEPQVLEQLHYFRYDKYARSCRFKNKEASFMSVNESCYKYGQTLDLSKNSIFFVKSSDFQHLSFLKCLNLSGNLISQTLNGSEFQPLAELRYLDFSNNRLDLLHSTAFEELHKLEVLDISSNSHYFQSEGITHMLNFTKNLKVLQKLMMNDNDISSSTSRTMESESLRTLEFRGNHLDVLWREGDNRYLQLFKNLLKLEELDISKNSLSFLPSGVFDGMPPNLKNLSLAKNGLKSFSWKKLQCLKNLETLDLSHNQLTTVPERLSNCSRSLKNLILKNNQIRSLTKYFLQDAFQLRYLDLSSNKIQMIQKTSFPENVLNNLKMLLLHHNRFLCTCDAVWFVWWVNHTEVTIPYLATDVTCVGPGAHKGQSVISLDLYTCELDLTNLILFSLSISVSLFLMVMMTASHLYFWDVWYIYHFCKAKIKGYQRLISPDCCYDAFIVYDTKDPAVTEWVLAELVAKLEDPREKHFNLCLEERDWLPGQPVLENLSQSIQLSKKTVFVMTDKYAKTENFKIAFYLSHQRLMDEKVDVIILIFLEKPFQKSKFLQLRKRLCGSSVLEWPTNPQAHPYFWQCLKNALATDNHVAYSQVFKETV
Excerpt: The most common variant sequence of human TLR7 (represented by the EMBL sequence AF240467) was cloned into the mammalian cell expression vector pUNO and transfected into a HEK293 cell line already stably expressing the pNiFty2-SEAP reporter plasmid; integration of the reporter gene was maintained by selection with the antibiotic zeocin. Transfectants with stable TLR7 expression were selected using the antibiotic blasticidin. In this reporter cell-line, expression of secreted alkaline phosphatase (SEAP) is controlled by an NFkB/ELAM-1 composite promoter comprising five NFkB sites combined with the proximal ELAM-1 promoter. TLR signaling leads to the translocation of NFkB and activation of the promoter results in expression of the SEAP gene. TLR7-specific activation was assessed by determining the level of SEAP produced following overnight incubation of the cells at 37° C. with the standard compound in the presence of 0.1% (v/v) dimethylsulfoxide (DMSO). Concentration dependent induction of SEAP production by compounds was expressed as the concentration of compound which produced half of the maximal level of SEAP induction for that compound (pEC50).

[1] = 0.1 mg/kg intratracheally 24 h before and 24 h after OVA-challenge
[2] = 1 mg/kg intratracheally 24 h before and 24 h after OVA-challenge

Structure (SMILES) | EC50 (human TLR7) | also measured
CCCCc1nc2c(N)nc3ccccc3c2n1CCCN(CCCN1CCN(C)CC1)Cc1cccc(CC(=O)OC)c1 [Example 14, Methyl 2-(3-(((3-(4-amino-2-butyl-1H-imidazo[4,5-c]quinolin-1-yl)propyl)(3-(4-methylpiperazin-1-yl)propyl)amino)methyl)phenyl)acetate] | 251 nM | –
COCCc1nc2c(N)nc3ccccc3c2n1CCCN(Cc1cccc(CC(=O)OC)c1)C(=O)CN1CCN(CCOC)CC1 [Example 73, Methyl 2-(3-((N-(3-(4-amino-2-(2-methoxyethyl)-1H-imidazo[4,5-c]quinolin-1-yl)propyl)-2-(4-(2-methoxyethyl)piperazin-1-yl)acetamido)methyl)phenyl)acetate] | 501 nM | –
CCCCc1nc2c(N)nc3ccccc3c2n1CCCN(Cc1cccc(CC(=O)OC)c1)C(=O)CN1CCC(C(=O)N(C)C)CC1 [Example 52, Methyl 2-(3-((N-(3-(4-amino-2-butyl-1H-imidazo[4,5-c]quinolin-1-yl)propyl)-2-(4-(dimethylcarbamoyl)piperidin-1-yl)acetamido)methyl)phenyl)acetate] | 631 nM | –
CCCCc1nc2c(N)nc3ccccc3c2n1CCCN(Cc1cccc(CC(=O)OC)c1)C(=O)CN1CCCN(C(C)=O)CC1 [Example 63, Methyl 2-(3-((2-(4-acetyl-1,4-diazepan-1-yl)-N-(3-(4-amino-2-butyl-1H-imidazo[4,5-c]quinolin-1-yl)propyl)acetamido)methyl)phenyl)acetate] | 501 nM | –
CCCCc1nc2c(N)nc3ccccc3c2n1CCCN(Cc1ccc(CC(=O)OC)cc1)C(=O)CN1CCN(C(C)=O)CC1 [Example 19, Methyl 2-(4-((2-(4-acetylpiperazin-1-yl)-N-(3-(4-amino-2-butyl-1H-imidazo[4,5-c]quinolin-1-yl)propyl)acetamido)methyl)phenyl)acetate] | 251 nM | –
CCCCc1nc2c(N)nc3ccccc3c2n1CCCN(Cc1cccc(CC(=O)OC)c1)C(=O)CN1CCC1 [Example 44, Methyl 2-(3-((N-(3-(4-amino-2-butyl-1H-imidazo[4,5-c]quinolin-1-yl)propyl)-2-(azetidin-1-yl)acetamido)methyl)phenyl)acetate] | 251 nM | –
CCCCc1nc2c(N)nc3ccccc3c2n1CCCN(Cc1cccc(CC(=O)OC)c1)C(=O)CN1CCC(O)C1 (centres unmarked) [Example 47, Methyl 2-(3-((N-(3-(4-amino-2-butyl-1H-imidazo[4,5-c]quinolin-1-yl)propyl)-2-(3-hydroxypyrrolidin-1-yl)acetamido)methyl)phenyl)acetate] | 398 nM | –

Further lines, with some results ahead:

EC50 (human TLR7) | Structure (SMILES) | also measured
79.4 nM | CCCCc1nc2c(N)nc3ccccc3c2n1CCCN(Cc1ccc(CC(=O)OC)cc1)C(=O)CN(C)C [Example 3, Methyl 2-(4-((N-(3-(4-amino-2-butyl-1H-imidazo[4,5-c]quinolin-1-yl)propyl)-2-(dimethylamino)acetamido)methyl)phenyl)acetate] | Eosinophiles (cells/BALF) (Male Brown Norway rats; [1]): 67.2 ± 16.3 cells/BALF; IL-5 (pg/ml BALF) (Male Brown Norway rats; [1]): 18.0 ± 8.7 pg/ml BALF; IL-13 (pg/ml BALF) (Male Brown Norway rats; [1]): <4.9 pg/ml BALF; Eosinophiles (cells/BALF) (Male Brown Norway rats; [2]): 36.2 ± 11.3 cells/BALF; IL-5 (pg/ml BALF) (Male Brown Norway rats; [2]): 11.3 ± 7.5 pg/ml BALF; IL-13 (pg/ml BALF) (Male Brown Norway rats; [2]): <4.9 pg/ml BALF
200 nM | COCCc1nc2c(N)nc3ccccc3c2n1CCCN(Cc1ccc(CC(=O)OC)cc1)C(=O)CN(C)C [Example 30, Methyl 2-(4-((N-(3-(4-amino-2-(2-methoxyethyl)-1H-imidazo[4,5-c]quinolin-1-yl)propyl)-2-(dimethylamino)acetamido)methyl)phenyl)acetate] | –
158 nM | CCCCc1nc2c(N)nc3ccccc3c2n1CCCN(Cc1cccc(CC(=O)OC)c1)C(=O)CN(C)CCOC [Example 39, Methyl 2-(3-((N-(3-(4-amino-2-butyl-1H-imidazo[4,5-c]quinolin-1-yl)propyl)-2-((2-methoxyethyl)(methyl)amino)acetamido)methyl)phenyl)acetate] | –
126 nM | CCCCc1nc2c(N)nc3ccccc3c2n1CCCN(Cc1cccc(CC(=O)OC)c1)C(=O)CN(C)CCCC [Example 40, Methyl 2-(3-((N-(3-(4-amino-2-butyl-1H-imidazo[4,5-c]quinolin-1-yl)propyl)-2-(butyl(methyl)amino)acetamido)methyl)phenyl)acetate] | –
39.8 nM | CCCCc1nc2c(N)nc3ccccc3c2n1CCCN(Cc1cccc(CC(=O)OC)c1)C(=O)CN(C)C [Example 4, Methyl 2-(3-((N-(3-(4-amino-2-butyl-1H-imidazo[4,5-c]quinolin-1-yl)propyl)-2-(dimethylamino)acetamido)methyl)phenyl)acetate] | –
251 nM | CCCCc1nc2c(N)nc3ccccc3c2n1CCCN(CCN(C)C)Cc1ccc(CC(=O)OC)cc1 [Example 6, Methyl[4-({[3-(4-amino-2-butyl-1H-imidazo[4,5-c]quinolin-1-yl)propyl][2-(dimethylamino)ethyl]amino}methyl)phenyl]acetate] | –
316 nM | COCCc1nc2c(N)nc3ccccc3c2n1CCCN(CCCN1CCOCC1)Cc1ccc(CC(=O)OC)cc1 [Example 34, Methyl 2-(4-(((3-(4-amino-2-(2-methoxyethyl)-1H-imidazo[4,5-c]quinolin-1-yl)propyl)(3-morpholinopropyl)amino)methyl)phenyl)acetate] | –
